Results on two molecules are retold here after ChEMBL document CHEMBL1135773, “Purine and pyrimidine (P2) receptors as drug targets” (J Med Chem, 2002).

Test [1] addresses T1, P2Y purinoceptor 1 (Homo sapiens, UniProt P47900). Kind of test: Dissociation constant at P2Y purinoceptor 1 (P2Y1) from guinea pig taenia coli. Details: species or system Cavia porcellus. The settings on record: target entry is the homologue from another species.
The target in test [2] is T2, P2X purinoceptor 1 (Rattus norvegicus, UniProt P47824).
T2 sequence (P47824 whole entry): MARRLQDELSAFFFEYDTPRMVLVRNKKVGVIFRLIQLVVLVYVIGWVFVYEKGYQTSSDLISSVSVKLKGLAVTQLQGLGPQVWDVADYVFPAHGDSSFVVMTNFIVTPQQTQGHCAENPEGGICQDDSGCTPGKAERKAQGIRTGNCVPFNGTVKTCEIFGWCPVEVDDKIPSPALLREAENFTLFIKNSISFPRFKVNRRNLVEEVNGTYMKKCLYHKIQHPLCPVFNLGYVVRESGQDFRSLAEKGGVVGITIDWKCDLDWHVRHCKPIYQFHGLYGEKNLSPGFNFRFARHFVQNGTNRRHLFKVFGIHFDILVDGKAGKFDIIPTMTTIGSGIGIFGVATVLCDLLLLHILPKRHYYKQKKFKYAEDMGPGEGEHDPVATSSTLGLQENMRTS
Kind of test: The compound was evaluated for antagonist activity against P2X purinoceptor 1 (P2X1) from rat vas deferens. The class given is functional.

In test [3] the target is P2Y purinoceptor 1 (Rattus norvegicus) (UniProt P49651). Kind of test: Evaluated for agonist activity against phospholipase C coupled P2Y purinoceptor 1 (P2Y1) of rat erythrocytes.
Sequence of P2Y purinoceptor 1 (Rattus norvegicus) (P49651 whole entry, looked up): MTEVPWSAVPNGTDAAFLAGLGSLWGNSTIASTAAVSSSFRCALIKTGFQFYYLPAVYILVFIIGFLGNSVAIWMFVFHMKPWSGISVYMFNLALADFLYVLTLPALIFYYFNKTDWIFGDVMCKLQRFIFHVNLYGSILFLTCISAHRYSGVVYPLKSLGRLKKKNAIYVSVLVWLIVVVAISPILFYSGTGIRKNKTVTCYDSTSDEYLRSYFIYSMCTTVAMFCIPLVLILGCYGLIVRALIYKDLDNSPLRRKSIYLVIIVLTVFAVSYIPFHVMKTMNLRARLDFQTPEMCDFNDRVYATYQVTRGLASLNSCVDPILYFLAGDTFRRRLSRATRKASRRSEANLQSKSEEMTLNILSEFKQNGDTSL
For test [4], the target named is T2, P2X purinoceptor 1. Kind of test: The compound was evaluated for antagonist activity against recombinant rat P2X purinoceptor 1 (P2X1) at 1 uM, expressed in Xenopus oocytes. The class given is functional, cell-based, Oocyte.
For a further test, the target named is P2Y purinoceptor 4 (Homo sapiens, UniProt P51582). Kind of test: The compound was evaluated for antagonist activity against phospholipase C coupled recombinant human P2Y purinoceptor 4 (P2Y4). The format is functional.
Sequence of P2Y purinoceptor 4 (P51582 whole entry): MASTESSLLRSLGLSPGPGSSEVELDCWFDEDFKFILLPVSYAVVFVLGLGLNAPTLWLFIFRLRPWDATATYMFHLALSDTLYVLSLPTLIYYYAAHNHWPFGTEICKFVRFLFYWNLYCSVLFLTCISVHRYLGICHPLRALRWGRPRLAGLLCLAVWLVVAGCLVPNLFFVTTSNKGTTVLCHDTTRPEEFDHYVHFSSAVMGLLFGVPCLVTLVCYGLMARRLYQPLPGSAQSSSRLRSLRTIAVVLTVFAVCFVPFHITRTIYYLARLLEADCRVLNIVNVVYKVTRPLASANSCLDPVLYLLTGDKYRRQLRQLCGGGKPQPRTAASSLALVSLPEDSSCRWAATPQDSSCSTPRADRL
Another test deals with T3, P2X purinoceptor 2 (Rattus norvegicus, UniProt P49653).
T3 sequence (P49653 whole entry): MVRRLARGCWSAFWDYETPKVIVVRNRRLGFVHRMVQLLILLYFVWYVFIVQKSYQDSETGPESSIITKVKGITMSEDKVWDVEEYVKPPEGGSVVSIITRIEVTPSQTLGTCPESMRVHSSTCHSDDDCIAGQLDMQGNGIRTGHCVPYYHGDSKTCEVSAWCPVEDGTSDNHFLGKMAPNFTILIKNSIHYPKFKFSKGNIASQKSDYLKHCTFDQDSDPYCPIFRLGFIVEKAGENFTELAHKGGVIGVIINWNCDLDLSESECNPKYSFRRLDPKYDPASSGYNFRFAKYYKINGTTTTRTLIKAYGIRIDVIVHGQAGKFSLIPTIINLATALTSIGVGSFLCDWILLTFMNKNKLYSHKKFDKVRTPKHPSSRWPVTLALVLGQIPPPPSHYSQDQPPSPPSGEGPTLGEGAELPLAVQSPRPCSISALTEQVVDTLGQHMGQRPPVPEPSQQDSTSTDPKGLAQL
Kind of test: The compound was evaluated for antagonist activity against recombinant rat receptor P2X purinoceptor 2 (P2X2) at 30 uM, expressed in Xenopus oocytes. The format is functional, cell-based, Oocyte.

The next test deals with P2X purinoceptor 7 (Rattus norvegicus, UniProt Q64663). Kind of test: The compound was evaluated for antagonist activity against recombinant rat P2X purinoceptor 7 (P2X7). The format is functional.
Sequence of P2X purinoceptor 7 (Q64663 whole entry): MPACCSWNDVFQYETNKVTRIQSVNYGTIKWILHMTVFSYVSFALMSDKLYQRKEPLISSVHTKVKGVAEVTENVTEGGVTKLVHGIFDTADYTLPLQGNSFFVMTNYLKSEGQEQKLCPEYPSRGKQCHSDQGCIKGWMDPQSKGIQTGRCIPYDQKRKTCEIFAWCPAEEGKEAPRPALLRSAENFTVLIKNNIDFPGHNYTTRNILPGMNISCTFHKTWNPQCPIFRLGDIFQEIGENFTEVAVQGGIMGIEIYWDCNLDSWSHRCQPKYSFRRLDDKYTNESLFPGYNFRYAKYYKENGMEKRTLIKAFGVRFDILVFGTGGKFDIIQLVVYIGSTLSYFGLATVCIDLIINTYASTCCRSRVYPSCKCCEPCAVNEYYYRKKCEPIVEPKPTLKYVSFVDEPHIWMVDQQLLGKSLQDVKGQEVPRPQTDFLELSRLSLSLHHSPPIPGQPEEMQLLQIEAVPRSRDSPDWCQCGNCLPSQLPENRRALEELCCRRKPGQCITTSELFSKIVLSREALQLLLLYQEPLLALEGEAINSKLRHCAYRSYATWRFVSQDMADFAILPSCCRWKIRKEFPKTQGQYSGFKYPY
Another test addresses P2Y purinoceptor 2 (Homo sapiens, UniProt P41231). Kind of test: Evaluated for agonist activity against phospholipase C coupled recombinant human P2Y purinoceptor 2 (P2Y2). The format is functional.
Another test has as its target T4, P2X purinoceptor 5 (Rattus norvegicus, UniProt P51578).
T4 sequence (P51578 whole entry): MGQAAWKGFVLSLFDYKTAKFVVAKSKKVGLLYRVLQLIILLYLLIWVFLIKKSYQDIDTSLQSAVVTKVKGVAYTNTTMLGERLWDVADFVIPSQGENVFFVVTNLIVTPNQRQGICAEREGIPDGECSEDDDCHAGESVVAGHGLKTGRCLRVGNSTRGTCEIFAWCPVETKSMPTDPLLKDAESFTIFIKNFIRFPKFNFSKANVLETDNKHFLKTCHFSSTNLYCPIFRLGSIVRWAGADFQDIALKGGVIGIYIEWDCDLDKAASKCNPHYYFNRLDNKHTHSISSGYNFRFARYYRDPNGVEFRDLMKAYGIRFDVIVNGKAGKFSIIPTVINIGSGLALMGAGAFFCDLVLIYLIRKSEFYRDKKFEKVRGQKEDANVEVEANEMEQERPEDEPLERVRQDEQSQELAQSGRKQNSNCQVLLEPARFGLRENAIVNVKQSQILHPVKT
Kind of test: Antagonist activity against recombinant rat P2X purinoceptor 5 (P2X5). The format is functional.

The target in a further test is P2Y purinoceptor 6 (Homo sapiens, UniProt Q15077). Kind of test: The compound was evaluated for agonist activity against phospholipase C coupled recombinant human P2Y purinoceptor 6 (P2Y6). The settings on record: concentration not given here. The class given is functional.
Sequence of P2Y purinoceptor 6 (Q15077 whole entry): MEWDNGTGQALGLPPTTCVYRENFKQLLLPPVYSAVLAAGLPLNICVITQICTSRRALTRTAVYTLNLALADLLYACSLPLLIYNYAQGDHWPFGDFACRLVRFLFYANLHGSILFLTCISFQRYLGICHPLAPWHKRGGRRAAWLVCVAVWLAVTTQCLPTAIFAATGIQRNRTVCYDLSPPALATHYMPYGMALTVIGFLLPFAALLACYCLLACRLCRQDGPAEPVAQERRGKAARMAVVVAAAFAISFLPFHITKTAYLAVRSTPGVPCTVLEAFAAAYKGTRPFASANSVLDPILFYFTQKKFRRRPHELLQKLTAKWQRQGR
The target of another test is P2X purinoceptor 6 (Rattus norvegicus, UniProt P51579). Kind of test: Antagonist activity against recombinant rat P2X purinoceptor 6 (P2X6 ). The class given is functional.
Sequence of P2X purinoceptor 6 (P51579 whole entry): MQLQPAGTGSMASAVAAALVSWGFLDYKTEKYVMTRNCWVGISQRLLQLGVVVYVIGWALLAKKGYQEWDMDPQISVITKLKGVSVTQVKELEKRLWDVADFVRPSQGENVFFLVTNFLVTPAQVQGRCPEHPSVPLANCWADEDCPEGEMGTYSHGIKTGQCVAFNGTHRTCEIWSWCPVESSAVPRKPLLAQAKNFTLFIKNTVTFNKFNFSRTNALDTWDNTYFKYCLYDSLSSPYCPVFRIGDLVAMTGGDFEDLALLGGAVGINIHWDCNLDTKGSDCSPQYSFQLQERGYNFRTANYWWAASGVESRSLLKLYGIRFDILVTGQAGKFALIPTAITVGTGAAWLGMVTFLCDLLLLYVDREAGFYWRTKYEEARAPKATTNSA
For test [5], the target named is T1, P2Y purinoceptor 1. Kind of test: Evaluated for agonist activity against phospholipase C coupled P2Y purinoceptor 1 (P2Y1) of human erythrocytes. The format is functional.
A further test addresses T5, P2X purinoceptor 4 (Rattus norvegicus, UniProt P51577).
T5 sequence (P51577 whole entry): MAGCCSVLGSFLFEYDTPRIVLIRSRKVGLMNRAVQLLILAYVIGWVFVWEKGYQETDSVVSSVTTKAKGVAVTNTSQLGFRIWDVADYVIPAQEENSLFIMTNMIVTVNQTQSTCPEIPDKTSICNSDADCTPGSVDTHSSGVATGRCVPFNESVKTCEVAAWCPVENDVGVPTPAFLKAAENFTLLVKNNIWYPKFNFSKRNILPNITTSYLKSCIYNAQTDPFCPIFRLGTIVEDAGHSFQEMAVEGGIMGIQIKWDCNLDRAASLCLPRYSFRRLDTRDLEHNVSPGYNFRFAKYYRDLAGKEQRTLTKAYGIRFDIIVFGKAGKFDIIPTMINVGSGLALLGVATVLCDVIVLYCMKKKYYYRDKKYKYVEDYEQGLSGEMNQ
Kind of test: Antagonist activity against recombinant rat P2X purinoceptor 4 (P2X4) at 3 uM, expressed in Xenopus oocytes. The format is functional, cell-based, Oocyte.

The target in the next test is P2Y purinoceptor 12 (Rattus norvegicus, UniProt Q9EPX4). Kind of test: Antagonist activity against phospholipase C coupled rat P2Y purinoceptor 12 (P2Y12). The class given is functional.
Sequence of P2Y purinoceptor 12 (Q9EPX4 whole entry): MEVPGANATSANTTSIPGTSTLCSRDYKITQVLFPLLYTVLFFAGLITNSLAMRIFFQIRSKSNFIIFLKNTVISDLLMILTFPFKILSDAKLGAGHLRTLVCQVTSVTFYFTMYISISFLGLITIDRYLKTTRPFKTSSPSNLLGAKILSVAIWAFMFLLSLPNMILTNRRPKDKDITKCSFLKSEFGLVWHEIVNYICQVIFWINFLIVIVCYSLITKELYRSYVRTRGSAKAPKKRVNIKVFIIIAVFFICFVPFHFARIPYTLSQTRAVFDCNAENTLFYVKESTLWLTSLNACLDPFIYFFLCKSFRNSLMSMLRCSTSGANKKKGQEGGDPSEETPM

T1 sequence (P47900 whole entry): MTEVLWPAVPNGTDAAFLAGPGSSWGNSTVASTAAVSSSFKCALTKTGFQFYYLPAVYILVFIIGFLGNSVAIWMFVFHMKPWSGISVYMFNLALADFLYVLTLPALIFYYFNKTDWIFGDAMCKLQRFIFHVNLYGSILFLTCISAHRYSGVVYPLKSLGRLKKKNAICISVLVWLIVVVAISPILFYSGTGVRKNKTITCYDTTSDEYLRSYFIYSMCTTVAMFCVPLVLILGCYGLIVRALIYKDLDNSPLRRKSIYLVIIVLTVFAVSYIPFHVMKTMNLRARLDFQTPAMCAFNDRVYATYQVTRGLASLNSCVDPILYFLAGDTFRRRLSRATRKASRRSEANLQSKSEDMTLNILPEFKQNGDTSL
Sequence of P2Y purinoceptor 2 (P41231 whole entry): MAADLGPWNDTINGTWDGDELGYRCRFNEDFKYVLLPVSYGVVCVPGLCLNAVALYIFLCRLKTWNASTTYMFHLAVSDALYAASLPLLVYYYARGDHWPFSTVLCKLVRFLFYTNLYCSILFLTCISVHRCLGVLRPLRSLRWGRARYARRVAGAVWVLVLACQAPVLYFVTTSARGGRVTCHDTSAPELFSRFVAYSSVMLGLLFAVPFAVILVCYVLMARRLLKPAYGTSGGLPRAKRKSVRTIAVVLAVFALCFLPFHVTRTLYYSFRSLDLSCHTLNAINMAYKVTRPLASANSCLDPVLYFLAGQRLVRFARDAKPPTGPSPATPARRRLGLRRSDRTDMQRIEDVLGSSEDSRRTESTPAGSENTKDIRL

In the case of `C=CS(=O)(=O)c1cccc(Nc2cc(S(=O)(=O)O)c(N)c3c2C(=O)c2ccccc2C3=O)c1` [UNIBLUE A], at P2Y purinoceptor 1 [1], the Kd is greater than 100 µM. On P2X purinoceptor 1 [2], this molecule registered an IC50 of 7.5 µM.

Turning to `Cc1nc(/N=N/c2ccc(S(=O)(=O)O)cc2S(=O)(=O)O)c(COP(=O)(O)O)c(C=O)c1O`, the concentration giving a half-maximal response (EC50) in test [3] was 18.2 µM; at P2X purinoceptor 1 [4], 0.099 µM; at P2Y purinoceptor 4 it was greater than 10 µM; on P2X purinoceptor 2, 12 µM; at P2X purinoceptor 7, 62 µM; on P2Y purinoceptor 2, greater than 10 µM. Also, the EC50 at P2X purinoceptor 5 was 2.6 µM; on P2X purinoceptor 6, greater than 100 µM; at P2Y purinoceptor 1 [5] it was 1 µM; at P2X purinoceptor 4 it was greater than 10 µM; on P2Y purinoceptor 12, greater than 100 µM. The inhibition on P2Y purinoceptor 6 is 69%.
